Results reported in patent publication US20060104951A1, “Akt and regulation of RA synovial fibroblast apoptosis” (priority 2004, published 2006).
Read-outs that look alike come from different tables or passages of the source.

Tests used:
Akt [1] = molecular target: T1, Akt (Homo sapiens, UniProt P31749); set-up: many cells; H2O2-treated B cells; settings: Cell: Many; cited from earlier work
[2] = system: rheumatoid arthritis synovial fibroblasts (RASF); experiment: ATPlite-M cytotoxicity assay in RASF; settings: wortmannin alone, 18 hours
Akt [3] = molecular target: T1, Akt; set-up: many cells; H2O2-treated B cells; settings: Cell: IL-2 activated T cell; cited from earlier work
Akt [4] = experiment: Akt kinase assay (immunoprecipitated Akt, GSK-3 fusion protein substrate) in OASF; format: cell-based, human; settings: TNF-α 10 ng/ml
Method: Active Akt phosphorylates GSK-3 at […].
Akt kinase assay of RA synovial fibroblasts is performed using Akt kinase assay kit according to the protocol provided by manufacturer (New England Biolabs, Beverly, Mass.). Briefly, three hundreds micrograms of total proteins from RA synovial fibroblasts are added into Akt antibody coated beads, incubated at 4° C. for 3 hours followed by washing. Phosphorylation of GSK-3 is used as an indicator of phosphorylated Akt, since Akt negatively regulates GSK-3a/b kinase activity via phosphorylation of GSK-3 at […]. After the kinase reaction, the reaction mixture is electrophoresed on a 12% SDS-PAGE gel and western blotted. The blots are probed with an anti-phospho-GSK-3a/b (Ser219) antibody (rabbit polyclonal IgG, affinity purified).

phosphorylated Akt = experiment: Western blot of phosphorylated-Akt in RASF lysates; settings: TNF-α 10 ng/ml alone
Method: The levels of phosphorylated-Akt are determined by Western blot analysis of lysates from RASF and OASF cell lines.
To determine the optimal amount of AdAkt-DN required to inhibit Akt phosphorylation, RASF is transfected with either 50 pfu/cell of AdGFP or with 5 pfu/cell or with 50 pfu/cell of AdAkt-DN respectively for 18 hr. The cells are then stimulated with TNFα (10 ng/ml) for 18 hr.
For evaluation of the phosphorylated form of Akt, the synovial cells are washed twice with ice-cold PBS followed by incubation with 200 μl of cell lysis buffer (20 mmol/L Tris [pH 7.4], 150 mmol/L NaCl, 1 mmol/L EDTA, 1 mmol/L EGTA, 1% Triton, 2.5 mmol/L sodium pyrophosphate, 1 mmol/L β-glycerophosphate, 1 mmol/L Na3VO4, 1 μg/mL leupeptin, and 1 mmol/L PMSF) for 5 min on ice. The cells are then harvested by scraping and sonicated using a Branson Sonicator (3×5 seconds, output control 2, duty cycle 100%) on ice. After centrifugation for 10 min at 20,000 g at 4° C., the protein concentration of the supernatant is determined using the Bio-Rad protein assay kit (Bio-Rad, Hercules, Calif.). […] Phosphorylated Akt is detected using the PhosphoPlus Akt antibody kit (New England Biolabs, Beverly, Mass.).

[5] = system: phosphorylated Akt (Thr308); experiment: Immunohistochemical staining of phosphorylated Akt in primary RASF; settings: TNF-α 10 ng/ml alone vs PBS, 18 hours
Method: To determine if this TNF-α survival signal involves a PI 3-kinase dependent mechanism, RASF and OASF are treated with TNF-α (10 ng/ml), using PBS as a control, in the presence and absence of the PI 3-kinase inhibitor, wortmannin (50 nM). After 18 hours, the synovial fibroblasts are stained using an antibody specific for phosphorylated-Akt.
The in-situ expression of phosphorylated-Akt is determined by staining fixed cells with an antibody specific for Thr308 phosphorylated Akt (New England Biolabs, Beverly, Mass.). Quenching of endogenous peroxidase is performed by incubating tissue sections with 3% H2O2 at RT for 10 min in a humidified chamber. After washing with PBS, tissue sections are incubated with 0.1% trypsin at 37° C. for 10 min to reveal fixed antigen epitopes. Tissue sections are then treated with denaturing solution at 20° C. for 30 min and blocking solution at RT for 10 min followed by incubation with a horseradish peroxidase (HRP) conjugated antibody specific for phosphorylated-Akt antibody (New England Biolabs, Beverly, Mass.). Slides are incubated with DAB staining kit (DAKO) for color development then counterstained with methyl green. At least 5 areas from each specimen are chosen randomly for assessment of the percentage of Akt-positive cells.

Akt [6] = molecular target: T1, Akt; settings: Cell: HL-60 K562; cited from earlier work

T1 sequence (P31749 whole entry): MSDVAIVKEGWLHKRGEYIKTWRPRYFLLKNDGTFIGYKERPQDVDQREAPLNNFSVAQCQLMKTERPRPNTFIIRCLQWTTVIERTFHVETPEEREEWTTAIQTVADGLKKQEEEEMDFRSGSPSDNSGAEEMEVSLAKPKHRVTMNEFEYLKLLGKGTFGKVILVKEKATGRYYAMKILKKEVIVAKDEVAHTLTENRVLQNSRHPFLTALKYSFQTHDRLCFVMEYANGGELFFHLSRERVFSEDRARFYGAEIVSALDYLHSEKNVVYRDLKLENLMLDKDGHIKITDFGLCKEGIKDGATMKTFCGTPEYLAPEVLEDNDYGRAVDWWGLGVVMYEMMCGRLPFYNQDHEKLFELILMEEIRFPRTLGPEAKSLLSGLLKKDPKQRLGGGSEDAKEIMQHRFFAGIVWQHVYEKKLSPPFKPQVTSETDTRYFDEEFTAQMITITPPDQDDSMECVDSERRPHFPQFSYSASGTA

Which Action (Akt [1]) does the source give for PDGF here?
Its Action is “Activates Akt”.

With `COC[C@H]1OC(=O)c2coc3c2[C@@]1(C)C1=C(C3=O)[C@@H]2CCC(=O)[C@@]2(C)C[C@H]1OC(C)=O` [wortmannin] as the molecule, how does the “cytotoxicity (ATPlite)” value [2] read?
The value was “Neither treatment with TNF-α nor wortmannin alone could induce cytotoxicity”.

For “Insulin-like growth factor-1: growth factor known to activate Akt”, which Action (Akt [1]) is on record?
The Action was “Activates Akt”.

With `C[S+]([O-])c1ccc(-c2nc(-c3ccncc3)c(-c3ccc(F)cc3)[nH]2)cc1` (centres unmarked) [SB 203580] as the molecule, how does the Action (Akt [3]) read?
Its Action is “Block Akt”.

Which Akt kinase activity (Akt [4]) does the source give for tumor necrosis factor-alpha [TNF-α] here?
The Akt kinase activity was “did not induce Akt kinase activity”.

And the “levels of phosphorylated-Akt (Western blot)” value (phosphorylated Akt)?
The value was “marked increase”.

What about the “production of phosphorylated Akt (immunohistochemical staining)” value [5] of the same molecule?
The value was “greatly enhanced production of phosphorylated Akt”.

For `Cc1ccc(NC(=O)c2ccc(CN3CCN(C)CC3)cc2)cc1Nc1nccc(-c2cccnc2)n1` [CGP57148B], which Action (Akt [6]) is on record?
The Action was “Block Akt”.
